From article PMC10721329, “Quisinostat is a brain-penetrant radiosensitizer in glioblastoma” (JCI Insight, 2023)
Where “and” joins values, the source holds several entries; their conditions need not be identical. Equal values may be shown once.

What was measured:
GB126 cells = assay: Ki67 / cleaved caspase-3 immunofluorescence; assay type: cell-based, human; settings: QST at IC50, 72 hours, replicates
Procedure: (§1) Cells were grown as adherent cultures on laminin -coated glass coverslips (Thermo Fisher Scientific) in GSC media. Twenty-four hours after plating, the cells were treated with QST or DMSO diluted in GSC media. Seventy-two hours after treatment, cells were fixed with 4% paraformaldehyde for 13 minutes at room temperature. Cells were washed with phosphate-buffered saline (PBS) and subsequently permeabilized and blocked with 5% normal goat serum (Sigma Aldrich) and 0.2% Triton X -100 in PBS (blocking solution) for 30 minutes at room temperature. The cells were incubated with primary antibodies overnight a t 4 °C in blocking solution. Primary antibodies used in this study included rabbit anti -Ki67 (1:1000; Abcam, 15580), rabbit anti-Cleaved Caspase 3 (1:400; Cell Signaling Technologies, 9661), rabbit anti - gamma H2AX (phospho Ser139; 1:1000, Abcam, ab11174), and mouse anti-human Nestin (1:500; Novus Biologicals, 10C2). The following day, the cells were washed with PBS 3 times, incubated with fluorophore-conjugated secondary antibodies at 1: 1000 dilutions (Alexa Fluor […]
(§2) for 1 hour at room temperature, and washed in PBS 3 more times. Cells were mounted onto […]
(§3) SuperFrost Plus microscope slides using Fluoroshield Mounting Medium containing DAPI (Abcam). Images were acquired using a confocal microscope (Leica Microsystems; TCS SP5) operated with Leica Application Suite software. The fraction of Ki67- and Cleaved Caspase 3– positive cells were counted from 5 independent images from each condition. The mean and standard deviation were calculated from 3 biological replicates for all control and QST-treated […]
(§4) Analysis of immunostaining of cultured GSCs was performed on confocal stacks (with a step size of 0.5–1.5 μm) acquired with either a 20× water-immersion objective or a 63× oil-immersion objective on a laser-scanning confocal microscope (Leica Microsystems; TCS SP5) operated with Leica Application Suite software. All images were processed using ImageJ software (National Institutes of Health). […]
(§5) mL of ice cold 70% ethanol, added dropwise while vortexing. Cells were fixed on ice for 30 minutes and washed twice with 1× PBS. Cells were then resuspended in 500 μL of propidium iodide/RNAse staining buffer (BD Biosciences, 550825) for 15 minutes at room temperature before analysis. Data from all the samples were obtained using a Fortessa flow cytometer (BD […]

BT145 cells = assay: Ki67 / cleaved caspase-3 immunofluorescence; assay type: cell-based, human; settings: QST at IC50, 72 hours, replicates
Procedure: as §1, §2, §3, §4, §5

[1] = Body weight / tolerability in flank tumor study; assay type: in vivo; design: weight of flank tumor mice: unit not given here; settings: for weight of flank tumor mice: individual mice
Procedure: We next examined whether QST treatment alone or in combination with IR would be effective in slowing tumor growth in a flank model of GBM (U87). Tumor-bearing mice receiving IR were treated with 2-Gy fractions on Monday, Wednesday, and Friday (MWF) 2 hours after dosing with either vehicle solution or QST (10 mg/kg), for a total dose of 6 Gy. Following completion of IR, mice continued to receive vehicle or QST until the tumors reached the maximum volume threshold (Figure 5C). […] The mean tumor volume in mice with combination treatment was approximately 4.5-fold less than that in vehicle-treated mice at study completion (Figure 5D). […]
treated with 2 Gy of ionizing radiation on MWF for a total 6 Gy (3 doses). Ionizing radiation was administered with the RS2000 series biological research irradiator (Rad Source Technologies).
Treatment of Flank-Implanted Mice with QST and/or Radiation
Implanted flank tumors were allowed to grow until the tumor size reached 100 mm3 volume. Mice were randomized into groups before treatment and underwent treatment on MWF for the entire duration of the experiment until the tumor volumes exceeded 2000 mm3. Treatment groups included vehicle (50% PEG-300), QST alone (10 mg/kg), flank IR treatment with vehicle (2 Gy), and flank IR treatment (2 Gy) with QST (10 mg/kg). For mice receiving IR treatment with or without QST, mice were treated with 2 Gy on MWF for a total 6 Gy during the first week of treatment. QST was administered to mice through intraperitoneal injections 2 hours before flank tumor radiation treatment. Upon completion of the radiation regimen, IR-treated mice subsequently received QST or vehicle alone for the rest of the experiment. Tumor growth and treatment response were monitored by manually measuring the tumor area twice per week starting at 13 days after implantation. Upon reaching the tumor volume threshold (2000 mm3), mice were sacrificed, and plasma and tissue samples were harvested for PD and PK analyses 2 hours after treatment with a final dose of QST (10 mg/kg). […]

Cn1cc(CNCC2CCN(c3ncc(C(=O)NO)cn3)CC2)c2ccccc21 [QST, quisinostat]
% CC-3 + / DAPI (GB126 cells): 18.5009% and 22.4947% and 8.724%
% Ki67+ / DAPI (GB126 cells): 8.013% and 11.9177% and 10.7184%
% CC-3 + / DAPI (BT145 cells): 11.8845% and 6.461% and 13.5339%
% Ki67+ / DAPI (BT145 cells): 26.1653% and 29.1973% and 26.725%
tolerability (mean weights) ([1]; 10 mg/kg IP MWF, alone and in combination with IR, flank tumor study): well tolerated
weight of flank tumor mice ([1]; day 13 post-injection): 29.8
weight of flank tumor mice ([1]; day 22 post-injection): 29.9 (2×) and 27.3 and 29.1 and 26 (2×) and 31.1 and 29.8 and 28 and 28.9
